Like-named read-outs stand apart in the source and are kept apart here.
How the values were obtained:
[1] = Single pass intestinal perfusion with portal vein blood collection; type: in vivo, rat; details: for Pe-mes (mesenteric permeability): rat in situ single pass intestinal perfusion, portal vein plasma, pH 7.5 buffer
Experimental: Male albino Sprague-Dawley rats, 9-10 weeks old and weighing 250-400 g were used in the study. Prior to each experiment, the rats were fasted for 18 h with free access to water. The rats were anesthetized with an i.m. injection of ketamine/xylazinelbutorphanol (87, 6, and 0.2 mg/kg body weight, respectively). The abdomen was opened by a midline incision of 4-5 cm. A suitable intestinal segment of approximately 10-20 cm was cannulated on two ends and connected to a syringe pump that guided the solution through a water bath of 37° C. This isolated segment was then rinsed with buffer at the respective pH at a flow-rate of 0.5 ml/min in order to clean out any residual debris. A 10 mM HEPES (pH 7.5) buffer containing 135 mM NaCl, 5 mM KCl and 0.01% PEG 4000 was used for the perfusion buffer. The intestinal segments were perfused at a flow rate of approximately […] with these buffers containing test drug and ^14C-PEG 4000 as a non-absorbable marker for measuring water flux. […] Sample analysis for ^14C (PEG-4000) was performed by scintillation counting. For these studies, we also took blood from the portal vein (prehepatic) as described below. After a segment of intestine was cannulated, the portal vein was then immediately cannulated using a 24-gauge Angeocath catheter (Becton Dickinson, Sandy, Utah). The cannula was secured in place using cyanoacrylate glue or surgical tape and connected to an approximately 35 cm long Silastic tubing, which allowed blood to flow into vials placed about 25 cm below the mesenteric vein. The single-pass intestinal perfusion was initiated at this time. Blood flowing out of the mesenteric vein from the isolated intestinal segment was collected directly into vials, centrifuged immediately and plasma was separated and stored at −80° C.
Rat plasma samples were acidified and processed with solid phase extraction. Briefly, a cation exchange solid-phase cartridge (MCX, 30 mg/i. cc, Waters) was activated with 1.0 ml of methanol and equilibrated with 1.0 ml of water. A 500 μl aliquot of rat plasma was acidified and loaded onto the cartridge. After washing with 1.0 ml of 0.1 N HCl and 1.0 ml methanol, the compounds were eluted with 1 ml of 5% NH4OH in methanol. The solvent was evaporated under vacuum and the residue was reconstituted in 200 μl of water. Samples were analyzed using a LC-MS/MS system (Micromass Quattro II, HP 1100). Ten μl of sample was separated with a Cs column (2.1×150 mm) using a mobile phase of 5-10% acetonitrile:water containing 0.5% formic acid.
From the plasma concentration of compound, the mesenteric permeability was determined by substitution into Eq. (1), Flux=(A)(Pe-mes)(Ci) Eq. (1) where Flux is equal to the portal blood flow (estimated at 1 ml/min in the rat) X the steady state mesenteric blood concentration of cidofovir-based compound, A is the absorptive area of the intestine (estimated at 12.56 cm^2 in the rat intestine), Pe-mes is the mesenteric permeability (cm/s), and Ci is the starting concentration of the drug in the perfusate ([…]).

hPepT1 = target: T1, hPepT1 (Homo sapiens, UniProt P46059); assay: Competitive binding (3H Gly-Sar uptake inhibition) in hPepT1 over-expressing DC5 cells; type: cell-based; details: for affinity for PepT1: DC5 cells over-expressing hPepT1
T1 construct: expressed in transfected cells; host or cells: DC5 cells (hPepT1 over-expressing cell line)
T1 sequence (P46059 1-708): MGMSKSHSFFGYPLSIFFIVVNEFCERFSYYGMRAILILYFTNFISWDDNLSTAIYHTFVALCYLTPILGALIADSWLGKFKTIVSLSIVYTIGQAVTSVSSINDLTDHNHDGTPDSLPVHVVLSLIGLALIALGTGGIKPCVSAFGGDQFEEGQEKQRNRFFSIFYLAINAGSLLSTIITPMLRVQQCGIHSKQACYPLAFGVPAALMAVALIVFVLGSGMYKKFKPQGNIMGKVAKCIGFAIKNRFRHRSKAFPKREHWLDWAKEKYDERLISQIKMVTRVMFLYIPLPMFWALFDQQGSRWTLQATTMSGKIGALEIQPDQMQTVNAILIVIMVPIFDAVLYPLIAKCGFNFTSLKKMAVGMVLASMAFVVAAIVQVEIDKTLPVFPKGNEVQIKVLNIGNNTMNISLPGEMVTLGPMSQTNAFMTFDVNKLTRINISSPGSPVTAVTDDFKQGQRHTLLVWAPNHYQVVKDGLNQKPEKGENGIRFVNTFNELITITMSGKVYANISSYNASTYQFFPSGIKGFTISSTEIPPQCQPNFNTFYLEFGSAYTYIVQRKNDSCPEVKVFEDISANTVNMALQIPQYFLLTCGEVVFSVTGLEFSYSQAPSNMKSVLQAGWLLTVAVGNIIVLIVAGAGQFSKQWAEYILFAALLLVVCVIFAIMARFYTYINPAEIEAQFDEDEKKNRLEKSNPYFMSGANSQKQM
Experimental: Ki values for the cidofovir compounds were determined in the hPepT1 over-expressing cell line (DC5) using ^3H glycine-sarcosine (Gly-Sar). DC5 cells were plated (12,000 cells/well) in 96-well tissue culture plates (Falcon) and allowed to grow for 4 days. The cells were washed once with 200 μl of uptake buffer and aspirated. The plates were cooled to 4° C. and 25 μl of uptake buffer containing 50 μM Gly-Sar (0.5 μCi/ml) was added. The uptake buffer also contained the test cidofovir-based compounds over a range of concentrations. Uptake was initiated by placing the plate in a shaker water bath (37° C.) and terminated at 10 min by rapid washing with multiple changes of 4° C. PBS (Sigma). The radioactive peptide was extracted from the cell layer with 200 μl of methanol:water (1:1) and counted in 4 ml of CytoScint ESTM scintillation cocktail (ICN). Non-linear regression analysis of the data was used to determine the IC50 using the solver function in Microsoft Excel.

[2] = pH 3-5
[3] = cell and tissue homogenates
[4] = in vivo; cited from earlier work
[5] = DC5 cells, 50 μM 3H Gly-Sar, 10 min, 37° C., read-out: Gly-Sar inhibition, Ki

Row | SMILES | Pe-mes (mesenteric permeability) [1] | Ki (hPepT1) | affinity for PepT1 (hPepT1) | Ki (hPepT1; [5]) | also measured
1 | COC(=O)[C@H](COP1(=O)CO[C@@H](Cn2ccc(N)nc2=O)CO1)NC(=O)[C@@H](N)C(C)C (mixture of isomers) [Compound 4, cHPMPC-Val-Ser(OMe)] | 1.18 cm/s × 10^5 | 2.7 ± 0.1 mM | significant affinity |  | transport on co-dosing with bestatin ([1]; co-dosing with the aminopeptidase inhibitor bestatin): enhanced transport; transport on co-perfusion with Gly-Sar ([1]; in situ perfusion model, co-perfusion with Gly-Sar): almost completely suppressed; transport vs. the parent drug ([1]; rat model): enhanced transport; stability in buffer [2]: stable; release of active drug [3]: rapidly released the active drug
2 | COC(=O)[C@H](COP1(=O)CO[C@@H](Cn2ccc(N)nc2=O)CO1)NC(=O)[C@@H](N)CC(C)C (mixture of isomers) [Compound 7, cHPMPC-Leu-Ser(OMe)] | 0.48 cm/s × 10^5 |  | significant affinity | 5.4 ± 0.2 mM | 
3 | Nc1ccn(C[C@@H](CO)OCP(=O)(O)O)c(=O)n1 [Cidofovir, (S)-1-(3-hydroxy-2-phosphonylmethoxypropyl)cytosine, reference compound] | 0.052 cm/s × 10^5 |  |  | 10.8 ± 0.3 mM | 
4 | COC(=O)C(COP1(=O)COC(Cn2ccc(N)nc2=O)CO1)NC(=O)C(C)N (stereo not shown) [Compound 6, cHPMPC-Ala-Ser(OMe)] | 0.98 cm/s × 10^5 | 3.4 ± 0.2 mM | significant affinity |  | 
5 | Nc1ccn(C[C@H]2COP(=O)(O)CO2)c(=O)n1 [Cyclic cidofovir, reference compound] | 0.003 cm/s × 10^5 |  |  | 10.7 ± 0.2 mM | 
6 | CC(C)[C@H](N)C(=O)OCCOCn1cnc2c(=O)[nH]c(N)nc21 [Valacyclovir] |  |  |  |  | bioavailability enhancement compared to parent drug acyclovir [4]: 3- to 5 fold

Reference: US8063209B2, “Phosphonyl ester conjugates as prodrugs” (priority 2004, dated 2011)
